Patent US9629834B2, “Medicinal composition for inhibiting formation and/or enlargement of cerebral aneurysm or shrinking same” (KYOTO UNIVERSITY, priority 2013, dated 2017)

Tests used:
Assay type in all cases: in vivo, SD rat
macrophages = assay: Macrophages infiltrating cerebral aneurysm walls in the enlargement study; details: 0.1 mg/5 mL suspension, forced oral, once a day from Day 7; 49 days after surgery (Week 7); FIG. 10
Description: Immunostaining of macrophages (F4/80-positive cells) was conducted on the prepared section as described below. As a primary antibody solution, a solution in which a rat anti-F4/80 antibody [BM8](AB16911: Abcam) was diluted with a phosphate buffer by 100 times was prepared. As a secondary antibody solution, a solution in which an alexa 488-conjugated donkey anti-rat IgG antibody (Invitrogen) was diluted with a phosphate buffer by 100 times was prepared. The section was allowed to react in the primary antibody solution at 4° C. for 16 hours, washed with a phosphate buffer, and thereafter, was allowed to react in the secondary antibody solution at room temperature for 1 hour. […] In addition, macrophages (F4/80-positive cells) stained green at the peripheries of nuclei (blue) were observed therein (in monochrome FIG. 3A, portions with a higher degree of whiteness). Under the observation with a confocal microscope, the number of macrophages was counted in an area of 100 μm square centered around the cerebrovascular bifurcation where cerebral aneurysm developed. The measurement was conducted on five rats and the mean value was calculated. […] In addition, 49 days after surgery (Week 7), the number of macrophages infiltrating cerebral aneurysm walls was counted according to the procedure of Reference Example 4 under the observation with a confocal microscope.

[1] = Influences on blood pressure and heart rate of rats (tail-cuff method); details: 0.03 or 0.1 mg/kg oral once a day, Day 1 to Day 27; measured Day 28, without anesthesia; FIG. 7A and FIG. 7B
Description: Immediately before dissecting rats 28 days after surgery (Day 28) as described in the section (1) of Example 1, blood pressure and heart rate of each of rats were measured noninvasively without anesthesia by a tail-cuff method. The measurement was conducted by using a noninvasive blood pressure measuring device for rats and mice BP-98A (Softron). The measurement was conducted three times per rat, and the mean value was used for calculating the mean value of all rats in each of the groups. No influence of the administration of Compound 1 on any blood pressure (SBP: systolic blood pressure, MBP: mean blood pressure, DBP: diastolic blood pressure) or heart rate was observed.

cerebral aneurysm model = assay: Inhibitory effect on formation of cerebral aneurysm in cerebral aneurysm model (EvG staining, size of aneurysm); details: 0.03 mg/5 mL or 0.1 mg/5 mL suspension, 5 mL/kg, forced oral, once a day, Day 1 to Day 27; Day 28; FIG. 5
Description: A rat model of cerebral aneurysm was prepared according to the method disclosed on the literature by Hashimoto et al. (Surgical Neurology 1978, Vol. 10, p. 3-8). Namely, 50 mg/kg of pentobarbital was administrated intraperitoneally to a 7-week-old male SD rat, and the left common carotid artery and the left renal artery were ligated by using 10-0 nylon thread under anesthesia (this is referred to as the surgery for inducing cerebral aneurysm). From the day after surgery (Day 1), the rat was reared with being fed a high-salt diet. During a rearing period, the rat was given free access to water. Forced oral administration of 0.03 mg/5 mL or 0.1 mg/5 mL of the suspension of Compound 1 to the cerebral aneurysm model was conducted once a day at a dose of 5 mL/kg from the day after surgery, i.e., 1 day after surgery (Day 1) to 27 days after surgery (Day 27). It should be noted that forced oral administration of the 0.5% MC solution (0 mg/5 mL of the suspension of Compound 1) to the cerebral aneurysm model was conducted once a day at a dose of 5 mL/kg. The group of these rats was defined as a vehicle group. 28 Days after surgery (Day 28), the right olfactory artery/anterior cerebral artery bifurcation containing cerebral aneurysm was extirpated and was fixed with 4% paraformaldehyde, and then the solution was replaced with a 30% sucrose solution, and thereafter, the extirpated bifurcation was frozen to prepare a specimen of a frozen section having a thickness of 5 μm, by similar procedures to the steps 1) and 2) of the method of Reference Example 2. This specimen was subjected to EvG staining and the formation of cerebral aneurysm was confirmed. The size of cerebral aneurysm was measured and evaluation was conducted. The maximum diameter (Maximum) represents the maximum distance between internal elastic lamina disruption sites observed by EvG staining, the height “Height” represents the maximum value of height defined as the length of the perpendicular line drawn from the line connecting the two ends of internal elastic lamina, and the mean diameter “Mean” represents the mean value of the maximum diameter and the height. This evaluation was conducted on all the rats (8 or 9 rats) of each of the groups, and the mean value of each of the groups was calculated. The administration of 0.1 mg/5 mL of a suspension of Compound 2 to the cerebral aneurysm model was started on the day of the surgery (Day 0) at a dose of 5 mL/kg, and forced oral administration was conducted once a day until 26 days after surgery (Day 26). The size of cerebral aneurysm was measured by using the protocol of Example 1. […] The size of cerebral aneurysm was measured by using the protocol of Example 1. […] The size of cerebral aneurysm was measured by using the protocol of Example 1.

C[C@H](Oc1ccc(-c2nc(-c3ccc4[nH]cnc4c3)no2)cc1C(F)(F)F)C(F)(F)F.Cl [Compound 1, 5-{5-[3-(trifluoromethyl)-4-{[(2S)-1,1,1-trifluoropropan-2-yl]oxy}phenyl]-1,2,4-oxadiazol-3-yl}-1H-benzimidazole hydrochloride]
number of macrophages infiltrating cerebral aneurysm walls (macrophages): decreased the number of macrophages at the site where cerebral aneurysm was induced | influence on blood pressure (SBP, MBP, DBP) [1]: No influence | influence on heart rate [1]: No influence | formation of cerebral aneurysm (size: Maximum, Height, Mean) (cerebral aneurysm model): inhibited the formation of cerebral aneurysm
